This is an account of results in US11453660B2, “Androgen receptor and glucocorticoid receptor modulators” (ONCOSTELLAE, S.L., priority 2017, dated 2022).

A value given as a limit tells only on which side of the number the result lay.

One assay addresses T1, human androgen receptor (Homo sapiens, UniProt P10275, T878A).
T1 construct: endogenously expressed human androgen receptor using the LnCap prostate cancer cell line; endogenous in cells; host or cells: LNCaP prostate cancer cell line (whole cells)
T1 sequence (P10275 1-920 T878A): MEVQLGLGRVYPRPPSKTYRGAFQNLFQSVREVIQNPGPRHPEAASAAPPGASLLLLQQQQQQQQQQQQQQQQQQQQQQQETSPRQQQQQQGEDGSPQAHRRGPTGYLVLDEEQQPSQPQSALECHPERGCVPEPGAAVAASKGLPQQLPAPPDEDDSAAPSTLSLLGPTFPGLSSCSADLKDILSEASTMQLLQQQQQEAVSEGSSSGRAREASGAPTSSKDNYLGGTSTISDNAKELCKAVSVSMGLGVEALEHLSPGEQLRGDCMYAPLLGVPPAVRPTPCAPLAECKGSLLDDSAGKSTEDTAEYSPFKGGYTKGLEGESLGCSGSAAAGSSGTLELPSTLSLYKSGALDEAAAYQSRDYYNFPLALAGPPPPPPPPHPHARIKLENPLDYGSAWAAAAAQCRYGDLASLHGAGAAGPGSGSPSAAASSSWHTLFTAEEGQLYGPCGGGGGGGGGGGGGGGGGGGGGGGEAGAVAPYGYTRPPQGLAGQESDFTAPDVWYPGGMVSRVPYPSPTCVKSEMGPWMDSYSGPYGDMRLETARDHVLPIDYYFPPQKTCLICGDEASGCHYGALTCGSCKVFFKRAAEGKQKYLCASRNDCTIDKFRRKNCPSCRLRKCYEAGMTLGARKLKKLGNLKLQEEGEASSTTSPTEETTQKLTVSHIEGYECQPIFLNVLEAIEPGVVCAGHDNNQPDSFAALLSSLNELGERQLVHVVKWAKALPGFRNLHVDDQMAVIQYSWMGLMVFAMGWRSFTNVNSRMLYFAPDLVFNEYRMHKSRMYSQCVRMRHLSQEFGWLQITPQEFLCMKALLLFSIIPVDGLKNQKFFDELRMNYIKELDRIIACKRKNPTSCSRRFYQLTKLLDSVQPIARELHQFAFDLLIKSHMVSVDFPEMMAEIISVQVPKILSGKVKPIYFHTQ
Put plainly: Human Androgen Receptor Binding (radioligand binding, LnCap prostate cancer cell line). Particulars: LnCap cells, displacement of [^3H]-methyltrienolone, 2 hours at 37° C.; read-out: AR LNCaP. In outline: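 Whole-cell displacement of [3H]-methyltrienolone from endogenous AR (T878A) in LnCap cells, in RPMI with 0.1% BSA and triamcinolone acetonide. Compounds 10 μM to 0.1 nM in 1:10 steps, 2 h at 37 °C; cells washed, SDS-lysed, bound radioactivity by scintillation counting for IC50.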

Assay [1] has as its target T2, Human Glucocorticoid Receptor (Homo sapiens, UniProt P04150).
T2 construct: endogenous in cells; host or cells: cytosol from IM-9 cell line
T2 sequence (P04150 1-777): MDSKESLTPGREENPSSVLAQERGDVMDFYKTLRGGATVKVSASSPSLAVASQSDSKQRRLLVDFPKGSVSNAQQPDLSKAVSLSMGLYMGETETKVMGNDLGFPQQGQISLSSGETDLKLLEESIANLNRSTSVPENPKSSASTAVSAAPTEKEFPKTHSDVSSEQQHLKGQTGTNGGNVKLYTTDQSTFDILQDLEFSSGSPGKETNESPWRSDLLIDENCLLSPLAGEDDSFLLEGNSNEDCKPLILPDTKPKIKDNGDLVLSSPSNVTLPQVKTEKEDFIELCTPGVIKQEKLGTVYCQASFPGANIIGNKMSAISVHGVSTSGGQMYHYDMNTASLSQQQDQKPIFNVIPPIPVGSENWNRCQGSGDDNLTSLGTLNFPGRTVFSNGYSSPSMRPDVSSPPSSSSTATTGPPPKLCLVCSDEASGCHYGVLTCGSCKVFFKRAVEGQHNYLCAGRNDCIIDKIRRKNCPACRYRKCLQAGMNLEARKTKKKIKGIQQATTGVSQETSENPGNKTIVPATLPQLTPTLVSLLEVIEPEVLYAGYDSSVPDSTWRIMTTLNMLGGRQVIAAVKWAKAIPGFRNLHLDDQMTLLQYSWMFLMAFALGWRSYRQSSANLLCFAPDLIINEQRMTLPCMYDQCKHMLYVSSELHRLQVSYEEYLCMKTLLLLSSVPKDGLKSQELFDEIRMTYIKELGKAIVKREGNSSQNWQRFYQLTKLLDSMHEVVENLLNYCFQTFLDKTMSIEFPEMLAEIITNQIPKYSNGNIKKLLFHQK
Put plainly: Competition Binding in IM-9 Human Glucocorticoid Receptor (GR IM-9). Particulars: cytosol from IM-9 cell line, 1.5 nM [3H]-Dexamethasone, 4° C. for 6 hours. The procedure, abridged:
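Radioligand competition using 100 μg IM-9 cell cytosol and 1.5 nM [3H]-dexamethasone, incubated 6 h at 4° C in TES/molybdate buffer, pH 7.4. Filtration on PEI-treated GF/B filters, scintillation counting; nonspecific binding defined with 10 μM triamcinolone.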

For `CC(=O)C1=C(C)NC(C)=C(C(=O)OCc2cccnc2)C1c1csc2c(Br)cccc12` (centres unmarked) [Example C58, Pyridin-3-ylmethyl 5-acetyl-4-(7-bromobenzo[b]thiophen-3-yl)-2,6-dimethyl-1,4-dihydropyridine-3-carboxylate], the IC50 (at human androgen receptor; in assay [1]) was below 100 nM throughout.
For `COC(=O)C1=C(C)NC(N)=C(C(=O)OC(C)C)C1c1csc2c(C#N)cccc12` (centres unmarked) [Example D41, 3-Isopropyl 5-methyl 2-amino-4-(7-cyanobenzo[b]thiophen-3-yl)-6-methyl-1,4-dihydropyridine-3,5-dicarboxylate], the values for the IC50 (at human androgen receptor; in assay [1]) were 100 to 1000 nM and below 100 nM, respectively.
Consider `CC(=O)C1=C(C)NC(C)=C(C(=O)OC(C)(C)c2ccccc2)C1c1csc2ncccc12` (centres unmarked) [Example C71, 2-phenylpropan-2-yl 5-acetyl-2,6-dimethyl-4-(thieno[2,3-b]pyridin-3-yl)-1,4-dihydropyridine-3-carboxylate], for which the values for the IC50 (at human androgen receptor; in assay [1]) were at least 1000 nM and below 100 nM, respectively.
In the case of `CC(=O)C1=C(C)NC(C)=C(C(=O)OCc2cccnc2)C1c1csc2ccccc12` (centres unmarked) [Example C48, Pyridin-3-ylmethyl 5-acetyl-4-(benzo[b]thiophen-3-yl)-2,6-dimethyl-1,4-dihydropyridine-3-carboxylate], the IC50 is at least 1000 nM at human androgen receptor and 100 to 1000 nM in assay [1].
On the same counts, the results for `CC(=O)C1=C(C)NC(C)=C(C(=O)OCC2CC2)C1c1csc2ncccc12` (centres unmarked) [Example C24, Cyclopropylmethyl 5-acetyl-2,6-dimethyl-4-(thieno[2,3-b]pyridin-3-yl)-1,4-dihydropyridine-3-carboxylate] are below 100 nM and below 100 nM.
Turning to `COC(=O)C1=C(C=O)NC(C2CC2)=C(C(=O)OC)C1c1csc2c(C#N)cccc12` (centres unmarked) [Example C117, Dimethyl 4-(7-cyanobenzo[b]thiophen-3-yl)-2-cyclopropyl-6-formyl-1,4-dihydropyridine-3,5-dicarboxylate], the results for the IC50 (at human androgen receptor; in assay [1]) were 100 to 1000 nM and below 100 nM, respectively.
Take `CC(=O)C1=C(C)NC(C)=C(C(=O)OCc2ccc(C#N)cc2)C1c1csc2ncccc12` (centres unmarked) [Example C73, 4-cyanobenzyl 5-acetyl-2,6-dimethyl-4-(thieno[2,3-b]pyridin-3-yl)-1,4-dihydropyridine-3-carboxylate]: the IC50 at human androgen receptor was at least 1000 nM; in assay [1] it was below 100 nM.
On the same counts, the results for `CC(=O)C1=C(C)NC(N)=C(C(=O)OCC2CCCCC2)C1c1csc2c(C#N)cccc12` (centres unmarked) [Example D30, Cyclohexylmethyl 5-acetyl-2-amino-4-(7-cyanobenzo[b]thiophen-3-yl)-6-methyl-1,4-dihydropyridine-3-carboxylate] are 100 to 1000 nM and below 100 nM.
Take `CC(=O)C1=C(C)NC(C2CC2)=C(C(=O)OCc2ccc(F)cc2)C1c1csc2ncccc12` (centres unmarked) [Example J42, 4-fluorobenzyl 5-acetyl-2-cyclopropyl-6-methyl-4-(thieno[2,3-b]pyridin-3-yl)-1,4-dihydropyridine-3-carboxylate]: the IC50 on human androgen receptor is 100 to 1000 nM; in assay [1] it was below 100 nM.
For `CC1=C(C#N)C(c2csc3c(C#N)cccc23)C(C(=O)OCC2CC2)=C(N)N1` (centres unmarked) [Example D24, cyclopropylmethyl 2-amino-5-cyano-4-(7-cyanobenzo[b]thiophen-3-yl)-6-methyl-1,4-dihydropyridine-3-carboxylate] the same measures were 100 to 1000 nM and below 100 nM.
On the same counts, the results for `CC(=O)C1=C(C)NC(C)=C(C(=O)OCc2cccc(-c3cccnc3)c2)C1c1csc2ncccc12` (centres unmarked) [Example L4, 3-(pyridin-3-yl)benzyl 5-acetyl-2,6-dimethyl-4-(thieno[2,3-b]pyridin-3-yl)-1,4-dihydropyridine-3-carboxylate] are below 100 nM and below 100 nM.
For `CC1=C(C(=O)OC2CC2)C(c2csc3c(C#N)cccc23)C(C(=O)OCC2CC2)=C(N)N1` (centres unmarked) [Example D37, 5-Cyclopropyl 3-(cyclopropylmethyl) 2-amino-4-(7-cyanobenzo[b]thiophen-3-yl)-6-methyl-1,4-dihydropyridine-3,5-dicarboxylate] the same measures were 100 to 1000 nM and below 100 nM.
Consider `CC(=O)C1=C(C)NC(C)=C(C(=O)OCc2ccc(-c3ccncc3)cc2)C1c1csc2ncccc12` (centres unmarked) [Example L1, 4-(pyridin-4-yl)benzyl 5-acetyl-2,6-dimethyl-4-(thieno[2,3-b]pyridin-3-yl)-1,4 dihydropyridine-3-carboxylate], for which the IC50 is at least 1000 nM on human androgen receptor and below 100 nM in assay [1].
Regarding `CC(=O)C1=C(C)NC(C)=C(C(=O)OCc2cccc(-c3ccncc3)c2)C1c1csc2ncccc12` (centres unmarked) [Example L3, 3-(pyridin-4-yl)benzyl 5-acetyl-2,6-dimethyl-4-(thieno[2,3-b]pyridin-3-yl)-1,4-dihydropyridine-3-carboxylate], the IC50 (on human androgen receptor; in assay [1]) was below 100 nM throughout.
In the case of `CC(=O)C1=C(C)NC(C)=C(C(=O)OCc2ccncc2)C1c1csc2ccc(F)cc12` (centres unmarked) [Example C46, Pyridin-4-ylmethyl 5-acetyl-4-(5-fluorobenzo[b]thiophen-3-yl)-2,6-dimethyl-1,4-dihydropyridine-3-carboxylate], the results for the IC50 (on human androgen receptor; in assay [1]) were 100 to 1000 nM and below 100 nM, respectively.
For the molecule `COC(=O)C1=C(C)NC(N)=C(C(=O)OC2CCCC2)C1c1csc2c(C#N)cccc12` (centres unmarked) [Example D27, 3-Cyclopentyl 5-methyl 2-amino-4-(7-cyanobenzo[b]thiophen-3-yl)-6-methyl-1,4-dihydropyridine-3,5-dicarboxylate], the values for the IC50 (on human androgen receptor; in assay [1]) were 100 to 1000 nM and below 100 nM, respectively.
For `CC(=O)C1=C(C)NC(C)=C(C(=O)OCC2CCOCC2)C1c1csc2ccc(F)cc12` (centres unmarked) [Example C44, (Tetrahydro-2H-pyran-4-yl)methyl 5-acetyl-4-(5-fluorobenzo[b]thiophen-3-yl)-2,6-dimethyl-1,4-dihydropyridine-3-carboxylate] the same measures were at least 1000 nM and 100 to 1000 nM.
As for `COC(=O)C1=C(C)NC(N)=C(C(=O)OCC(C)(C)C)C1c1csc2c(C#N)cccc12` (centres unmarked) [Example D43, 5-Methyl 3-neopentyl 2-amino-4-(7-cyanobenzo[b]thiophen-3-yl)-6-methyl-1,4-dihydropyridine-3,5-dicarboxylate], the IC50 on human androgen receptor is 100 to 1000 nM; in assay [1] it was below 100 nM.
In the case of `C#CCOC(=O)C1=C(C)NC(N)=C(C(=O)OCC2CC2)C1c1csc2c(C#N)cccc12` (centres unmarked) [Example D47, 3-(Cyclopropylmethyl) 5-(prop-2-yn-1-yl) 2-amino-4-(7-cyanobenzo[b]thiophen-3-yl)-6-methyl-1,4-dihydropyridine-3,5-dicarboxylate], the IC50 on human androgen receptor was 100 to 1000 nM; in assay [1] it was below 100 nM.
